Reference: US9187429B2, “Phenyl-tetrahydroisoquinoline derivatives” (Hoffmann-La Roche Inc., priority 2012, dated 2015)

Experiments:
CYP11B2 = CYP11B2 (Homo sapiens (Human), UniProt P19099); test: G-402 cellular enzyme assay, human CYP11B2 (aldosterone release); assay type: cell-based; conditions: G-402 cells expressing human CYP11B2, 1 μM Deoxycorticosterone
From the text: (§1) The expression plasmids contains the ORF for either human/cyno CYP11B1 or CYP11B2 under the control of a suitable promoter (CMV-promoter) and a suitable resistance marker (neomycin). Using standard techniques the expression plasmid is transfected into G-402 cells and these cells are then selected for expressing the given resistance markers. Individual cell-clones are then selected and assessed for displaying the desired enzymatic activity using 11-Deoxycorticosterone (Cyp 11B2) or 11-Deoxycortisol (Cyp 11B1) as a substrate.
(§2) G-402 cells expressing CYP11 constructs were established as described above and maintained in McCoy's 5a Medium Modified, ATCC Catalog No. 30-2007 containing 10% FCS and 400 μg/ml G418 (Geneticin) at 37° C. under an atmosphere of 5% CO2/95% air. […] For assaying enzymatic activity, cells were plated onto 96 well plates and incubated for 16 h. An aliquot of the supernatant is then transferred and analyzed for the concentration of the expected product (Aldosterone for CYP11B2; Cortisol for CYP11B1). The concentrations of these steroids can be determined using HTRF assays from CisBio analyzing either Aldosterone or Cortisol.
(§3) Inhibition of the release of produced steroids can be used as a measure of the respective enzyme inhibition by test compounds added during the cellular enzyme assay. The dose dependent inhibition of enzymatic activity by a compound is calculated by means of plotting added inhibitor concentrations (x-axes) vs. measured steroid/product level (y-axes). The inhibition is then calculated by fitting the following 4-parameter sigmoidal function (Morgan-Mercer-Flodin (MMF) model) to the raw data points using the least squares method:
(§4) [formula] wherein, A is the maximum y value, B is the EC50 factor determined using XLFit, C is the minimum y value and D is the slope value.
(§5) EC50 values for compounds claimed herein were tested with the G402-based assay system described. Cyp 11B2 enzyme activity was tested in presence of 1 μM Deoxycorticosterone and variable amounts of inhibitors; Cyp 11B1 enzyme activity was tested in presence of 1 μM Deoxycortisol and variable amounts of inhibitors.

human CYP11B1 = human CYP11B1 (Homo sapiens (Human), UniProt P15538); test: G-402 cellular enzyme assay, human CYP11B1 (cortisol release); assay type: cell-based; conditions: G-402 cells expressing human CYP11B1, 1 μM Deoxycortisol
From the text: as §1, §2, §3, §4, §5

Chain of CYP11B2 (P19099 25-503): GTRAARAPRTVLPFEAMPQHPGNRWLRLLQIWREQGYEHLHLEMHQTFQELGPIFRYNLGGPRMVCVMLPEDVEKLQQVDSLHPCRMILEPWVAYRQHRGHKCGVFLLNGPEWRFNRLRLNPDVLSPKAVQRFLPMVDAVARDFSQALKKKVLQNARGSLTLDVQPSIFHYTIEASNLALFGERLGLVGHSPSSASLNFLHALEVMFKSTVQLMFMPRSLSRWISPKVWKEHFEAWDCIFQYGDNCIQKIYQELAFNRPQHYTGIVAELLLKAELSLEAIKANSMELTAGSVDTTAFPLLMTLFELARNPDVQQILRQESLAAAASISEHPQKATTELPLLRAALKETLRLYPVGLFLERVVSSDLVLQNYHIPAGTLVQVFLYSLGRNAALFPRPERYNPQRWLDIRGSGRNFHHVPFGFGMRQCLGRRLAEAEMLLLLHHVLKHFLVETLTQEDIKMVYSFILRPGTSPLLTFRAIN
Chain of human CYP11B1 (P15538 25-503): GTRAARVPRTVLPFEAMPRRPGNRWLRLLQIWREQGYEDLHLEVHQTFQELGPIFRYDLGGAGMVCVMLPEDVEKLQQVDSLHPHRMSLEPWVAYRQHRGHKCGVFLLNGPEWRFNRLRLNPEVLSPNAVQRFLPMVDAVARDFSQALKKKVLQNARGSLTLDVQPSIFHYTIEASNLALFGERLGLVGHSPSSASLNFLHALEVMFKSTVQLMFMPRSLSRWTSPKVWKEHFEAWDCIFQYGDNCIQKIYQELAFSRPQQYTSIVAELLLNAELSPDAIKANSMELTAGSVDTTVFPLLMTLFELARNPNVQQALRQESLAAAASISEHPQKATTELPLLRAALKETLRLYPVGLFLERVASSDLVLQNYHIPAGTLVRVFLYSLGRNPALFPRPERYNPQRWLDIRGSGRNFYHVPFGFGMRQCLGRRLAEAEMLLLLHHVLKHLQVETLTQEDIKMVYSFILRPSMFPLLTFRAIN

Compound	EC50 (CYP11B2)	EC50 (human CYP11B1)
NC(=O)COC1CCc2c(-c3ccc(C(F)(F)F)cc3)cncc21 (racemic) [Example 102, (rac)-2-(4-(4-(Trifluoromethyl)phenyl)-6,7-dihydro-5H-cyclopenta[c]pyridin-7-yloxy)acetamide]	0.0011 µM	0.0408 µM
CC(=O)N[C@@H]1CCCc2c(-c3ccc(C(F)(F)F)cc3)cncc21 [Example 77, (+)-(R)—N-(4-(4-(Trifluoromethyl)phenyl)-5,6,7,8-tetrahydroisoquinolin-8-yl)acetamide]	0.0588 µM	2.24 µM
Cc1ccc(C2(O)CCCc3c(-c4ccc(C#N)cc4)cncc32)cc1C (single isomer, unassigned; (+)) [Example 15, (+)-(S or R)-4-(8-(3,4-Dimethylphenyl)-8-hydroxy-5,6,7,8-tetrahydroisoquinolin-4-yl)benzonitrile]	0.005 µM	0.021 µM
CCC(=O)NC1CCc2c(-c3ccc(C#N)cc3)cncc21 (single isomer, unassigned; (+)) [Example 19, (+)-(R or S)—N-(4-(4-Cyanophenyl)-6,7-dihydro-5H-cyclopenta[c]pyridin-7-yl)propionamide]	0.012 µM	0.174 µM
CC(=O)NC1CCCc2c(-c3ccc(C#N)cc3)cncc21 (racemic) [Example 8, (rac)-N-(4-(4-Cyanophenyl)-5,6,7,8-tetrahydroisoquinolin-8-yl)acetamide]	0.043 µM	0.422 µM
CCC(=O)N[C@H]1c2cncc(-c3ccc(C(F)(F)F)cc3)c2CC[C@@H]1C (single isomer, unassigned) [Example 69, N-[(7S,8R or 7R,8S)-7-Methyl-4-(4-trifluoromethyl-phenyl)-5,6,7,8-tetrahydro-isoquinolin-8-yl]-propionamide]	0.011 µM	0.742 µM
O=S(=O)(NC1CCc2c(-c3ccc(C(F)(F)F)cc3)cncc21)C1CC1 (racemic) [Example 94, (rac)-Cyclopropanesulfonic acid [4-(4-trifluoromethyl-phenyl)-6,7-dihydro-5H-[2]pyrindin-7-yl]-amide]	0.148 µM	2.33 µM
CCC(=O)NC1CCCc2c(-c3ccc(Cl)cc3)cncc21 (single isomer, unassigned; (-)) [Example 25, (−)-(S or R)—N-(4-(4-Chlorophenyl)-5,6,7,8-tetrahydroisoquinolin-8-yl)propionamide]	0.467 µM	23.1 µM
CCS(=O)(=O)NC1CCc2c(-c3ccc(C(F)(F)F)cc3)cncc21 (racemic) [Example 64, (rac)-N-(4-(4-(Trifluoromethyl)phenyl)-6,7-dihydro-5H-cyclopenta[c]pyridin-7-yl)ethanesulfonamide]	0.73 µM	12.7 µM
CCC(=O)N[C@H]1c2cncc(-c3ccc(C(F)(F)F)cc3)c2CC[C@H]1C (single isomer, unassigned) [Example 70, N-[(7R,8R or 7S,8S)-7-Methyl-4-(4-trifluoromethyl-phenyl)-5,6,7,8-tetrahydro-isoquinolin-8-yl]-propionamide]	0.042 µM	3.03 µM
CCOC(=O)NC1CCCc2c(-c3ccc(C#N)cc3)cncc21 (racemic) [Example 10, (rac)-Ethyl 4-(4-cyanophenyl)-5,6,7,8-tetrahydroisoquinolin-8-ylcarbamate]	0.067 µM	0.658 µM
Cc1ccc(C2(O)CCCc3c(-c4ccc(C#N)cc4)cncc32)cc1C (racemic) [Example 14, (rac)-4-(8-(3,4-Dimethylphenyl)-8-hydroxy-5,6,7,8-tetrahydroisoquinolin-4-yl)benzonitrile]	0.016 µM	0.073 µM
OC1CCc2c(-c3ccc(C(F)(F)F)cc3)cncc21 (racemic) [Example 83, (rac)-4-(4-(Trifluoromethyl)phenyl)-6,7-dihydro-5H-cyclopenta[c]pyridin-7-ol]	0.0169 µM	0.74 µM
OC1CCCc2c(-c3ccc(C(F)(F)F)cc3)cncc21 (single isomer, unassigned; (+)) [Example 106, (+)-(R or S)-4-(4-(Trifluoromethyl)phenyl)-5,6,7,8-tetrahydroisoquinolin-8-ol]	0.0046 µM	0.159 µM
CCC(=O)NC1CCCc2c(-c3ccc(Cl)cc3)cncc21 (single isomer, unassigned; (+)) [Example 26, (+)-(R or S)—N-(4-(4-Chlorophenyl)-5,6,7,8-tetrahydroisoquinolin-8-yl)propionamide]	0.017 µM	0.503 µM

Results, then the compound that gave them:

EC50 (CYP11B2)	EC50 (human CYP11B1)	Compound
0.031 µM	3.69 µM	CCC(=O)NC1CCCc2c(-c3ccc(C(F)(F)F)cc3)cncc21 (single isomer, unassigned; (+)) [Example 23, (+)-(R or S)—N-(4-(4-(Trifluoromethyl)phenyl)-5,6,7,8-tetrahydroisoquinolin-8-yl)propionamide]
0.029 µM	3.24 µM	CCC(=O)NC1CCCc2c(-c3ccc(C(F)(F)F)c(F)c3)cncc21 (racemic) [Example 39, (rac)-N-(4-(3-Fluoro-4-(trifluoromethyl)phenyl)-5,6,7,8-tetrahydroisoquinolin-8-yl)propionamide]
0.016 µM	1.81 µM	CCC(=O)NC1CCCc2c(-c3ccc(C(F)(F)F)c(F)c3)cncc21 (single isomer, unassigned; (+)) [Example 41, (+)-(R or S)—N-(4-(3-Fluoro-4-(trifluoromethyl)phenyl)-5,6,7,8-tetrahydroisoquinolin-8-yl)propionamide]
0.109 µM	2.4 µM	CCC(=O)NC1CCCc2c(-c3ccc(F)cc3F)cncc21 (racemic) [Example 42, (rac)-N-(4-(2,4-Difluorophenyl)-5,6,7,8-tetrahydroisoquinolin-8-yl)propionamide]
0.01 µM	0.156 µM	CCC(=O)NC1CCc2c(-c3ccc(F)c(C)c3)cncc21 (racemic) [Example 58, (rac)-N-(4-(4-Fluoro-3-methylphenyl)-6,7-dihydro-5H-cyclopenta[c]pyridin-7-yl)propionamide]
0.007 µM	0.103 µM	CCC(=O)NC1CCc2c(-c3ccc(Cl)c(F)c3)cncc21 (single isomer, unassigned; (+)) [Example 57, (+)-(R or S)—N-(4-(4-Chloro-3-fluorophenyl)-6,7-dihydro-5H-cyclopenta[c]pyridin-7-yl)propionamide]
0.0444 µM	1.87 µM	CCS(=O)(=O)NC1CCc2c(-c3ccc(C(F)(F)F)c(F)c3)cncc21 (single isomer, unassigned; (+)) [Example 73, (+)-(R or S)—N-(4-(3-Fluoro-4-(trifluoromethyl)phenyl)-6,7-dihydro-5H-cyclopenta[c]pyridin-7-yl)ethanesulfonamide]
4.85 µM	32.5 µM	CCC(=O)NC1CCCc2c(-c3ccc(C(F)(F)F)c(F)c3)cncc21 (single isomer, unassigned; (-)) [Example 40, (−)-(S or R)—N-(4-(3-Fluoro-4-(trifluoromethyl)phenyl)-5,6,7,8-tetrahydroisoquinolin-8-yl)propionamide]
0.071 µM	6.68 µM	CCC(=O)NC1CCCc2c(-c3ccc(C(F)(F)F)cc3F)cncc21 (single isomer, unassigned; (+)) [Example 35, (+)-(R or S)—N-(4-(2-Fluoro-4-(trifluoromethyl)phenyl)-5,6,7,8-tetrahydroisoquinolin-8-yl)propionamide]
